Data taken from patent US12441725B2, “ISO-citrate dehydrogenase (IDH) inhibitor” (ZHEJIANG METON PHARMACEUTICAL CO., LTD, priority 2019, dated 2025).

Tests used:
IDH1 R132H = target: T1, IDH1 R132H (Homo sapiens, UniProt O75874, R132H); assay: Biochemical assay for IDH inhibition (NADPH fluorescence), mutant IDH1 R132H; conditions: 50 nM IDH1-R132H, 1 hour pre-incubation, in triplet
T1 construct: 6xHis
Method in brief: (§1)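 Mutant enzyme (25 nM R132C or 50 nM R132H) was preincubated 1 h at room temperature with compound in pH 7.5 Tris buffer containing 1.33 mM α-KG, and the reaction was then started with NADPH (80 μM solution). NADPH consumption was followed by fluorescence (Ex 340/Em 460 nm) for 15 min. IC50 was derived from background-corrected linear rates relative to vehicle, run in triplicate.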

[1] = target: T2, IDH (endogenous IDH1 R132C) in HT1080 cell (Homo sapiens, UniProt O75874, R132C); assay: Cell-based assay for IDH inhibition (decrease of D-2-HG) in HT1080 cells; conditions: human fibrosarcoma cell line HT1080, 16 hours treatment, D-2-HG by LC-MS, in triplet
T2 construct: which harbor endogenous heterozygous IDH1 R132C and R132H mutation respectively and accumulate D-2-HG
T2 sequence (O75874 2-414 R132C): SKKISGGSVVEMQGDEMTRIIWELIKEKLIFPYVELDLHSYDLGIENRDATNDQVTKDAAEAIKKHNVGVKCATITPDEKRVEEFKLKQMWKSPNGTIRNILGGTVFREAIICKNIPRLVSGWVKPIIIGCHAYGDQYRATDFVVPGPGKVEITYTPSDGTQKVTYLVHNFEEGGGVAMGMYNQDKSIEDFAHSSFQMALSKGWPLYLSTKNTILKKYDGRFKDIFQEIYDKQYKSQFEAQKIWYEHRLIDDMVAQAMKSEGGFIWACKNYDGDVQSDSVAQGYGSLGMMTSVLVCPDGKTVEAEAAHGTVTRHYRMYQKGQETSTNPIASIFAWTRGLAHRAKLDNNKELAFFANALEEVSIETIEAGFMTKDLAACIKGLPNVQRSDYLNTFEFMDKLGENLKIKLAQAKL
Method in brief: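 HT1080 cells with endogenous IDH1 R132C, grown in DMEM/10% FBS, treated with compound at several concentrations for 16 h. Metabolites extracted in cold 40% methanol/40% acetonitrile and D-2-HG measured by HILIC LC-MS/MS, normalized to glutamate. IC50 from D-2-HG relative to DMSO controls; run in triplicate.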

IDH1 R132C = target: T3, IDH1 R132C (Homo sapiens, UniProt O75874, R132C); assay: Biochemical assay for IDH inhibition (NADPH fluorescence), mutant IDH1 R132C; conditions: 25 nM IDH1-R132C, 1 hour pre-incubation, in triplet
T3 construct: 6xHis
T3 sequence (O75874 whole entry R132C): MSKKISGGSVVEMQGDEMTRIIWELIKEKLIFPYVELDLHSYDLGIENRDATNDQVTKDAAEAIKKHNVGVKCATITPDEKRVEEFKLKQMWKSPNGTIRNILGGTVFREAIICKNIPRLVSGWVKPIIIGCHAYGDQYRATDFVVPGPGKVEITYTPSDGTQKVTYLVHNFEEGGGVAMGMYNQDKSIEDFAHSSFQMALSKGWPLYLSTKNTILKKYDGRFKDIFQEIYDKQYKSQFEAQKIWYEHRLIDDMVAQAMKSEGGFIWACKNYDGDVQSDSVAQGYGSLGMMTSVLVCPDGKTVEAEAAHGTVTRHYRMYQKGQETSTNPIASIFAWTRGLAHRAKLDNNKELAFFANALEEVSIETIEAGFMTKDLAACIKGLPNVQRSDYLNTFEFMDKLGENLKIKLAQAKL
Method in brief: as §1

T1 sequence (O75874 whole entry R132H): as the sequence (O75874 whole entry R132C) above, with C132H counted along it

Row | Structure (SMILES) | IC50 (IDH1 R132H) [nM] | IC50 [1] [nM] | IC50 (IDH1 R132C) [nM]
1 | CCN1Cc2c(ccnc2N[C@@H](C)c2cc(F)c(-c3ccnc(C(C)(C)C#N)c3)cc2F)C1=O [Compound 154, (S)-2-(4-(4-(1-((2-ethyl-1-oxo-2,3-dihydro-1H-pyrrolo[3,4-c]pyridin-4-yl)amino)ethyl)-2,5-difluorophenyl)pyridin-2-yl)-2-methylpropanenitrile] | 100 to 500 | 100 to 500 | 500 to 1000
2 | CCN1Cc2c(ccnc2N[C@@H](C)c2cc(F)c(-c3cc(C(F)(F)F)cc(F)n3)cc2F)C1=O [Compound 155, (S)-4-((1-(2,5-difluoro-4-(6-fluoro-4-(trifluoromethyl)pyridin-2-yl)phenyl)ethyl)amino)-2-ethyl-2,3-dihydro-1H-pyrrolo[3,4-c]pyridin-1-one] | < 100 | 100 to 500 | 100 to 500
3 | CCN1Cc2c(ccnc2N[C@@H](C)c2cc(F)c(-c3cc(C(C)(C)F)cc(O)n3)cc2F)C1=O [Compound 156, (S)-4-((1-(2,5-difluoro-4-(4-(2-fluoropropan-2-yl)-6-hydroxypyridin-2-yl)phenyl)ethyl)amino)-2-ethyl-2,3-dihydro-1H-pyrrolo[3,4-c]pyridin-1-one] | 100 to 500 | 100 to 500 | 500 to 1000
4 | CCN1Cc2c(ccnc2N[C@@H](C)c2cc(F)c(-c3cc(C(F)(F)F)cc(O)n3)cc2F)C1=O [Compound 157, (S)-4-((1-(2,5-difluoro-4-(6-hydroxy-4-(trifluoromethyl)pyridin-2-yl)phenyl)ethyl)amino)-2-ethyl-2,3-dihydro-1H-pyrrolo[3,4-c]pyridin-1-one] | 100 to 500 | > 1000 | > 1000
5 | COCCN1Cc2c(ccnc2N[C@@H](C)c2cc(F)c(-c3ccnc(C(C)(C)C)c3)cc2F)C1=O [Compound 158, (S)-4-((1-(4-(2-(tert-butyl)pyridin-4-yl)-2,5-difluorophenyl)ethyl)amino)-2-(2-methoxyethyl)-2,3-dihydro-1H-pyrrolo[3,4-c]pyridin-1-one] | 100 to 500 | > 1000 | > 1000
6 | C[C@H](Nc1nccc2c1CN(CCO)C2=O)c1cc(F)c(-c2ccnc(C(C)(C)C)c2)cc1F [Compound 159, (S)-4-((1-(4-(2-(tert-butyl)pyridin-4-yl)-2,5-difluorophenyl)ethyl)amino)-2-(2-hydroxyethyl)-2,3-dihydro-1H-pyrrolo[3,4-c]pyridin-1-one] | 100 to 500 | 100 to 500 | 100 to 500
7 | CCN1Cc2c(ccnc2N[C@@H](C)c2cc(F)c(-c3cn(C(C)(C)C)cn3)cc2F)C1=O [Compound 160, (S)-4-((1-(4-(1-(tert-butyl)-1H-imidazol-4-yl)-2,5-difluorophenyl)ethyl)amino)-2-ethyl-2,3-dihydro-1H-pyrrolo[3,4-c]pyridin-1-one] | 100 to 500 | 100 to 500 | 100 to 500
8 | CCN1Cc2c(ccnc2N[C@@H](C)c2cc(F)c(-c3cc(C(C)(C)F)c(OCOC)cn3)cc2F)C1=O [Compound 161, (S)-4-((1-(2,5-difluoro-4-(4-(2-fluoropropan-2-yl)-5-(methoxymethoxy)pyridin-2-yl)phenyl)ethyl)amino)-2-ethyl-2,3-dihydro-1H-pyrrolo[3,4-c]pyridin-1-one] | < 100 | < 100 | < 100
9 | CCN1Cc2c(ccnc2N[C@@H](C)c2cc(F)c(-c3cc(C(C)(C)F)c(O)cn3)cc2F)C1=O [Compound 162, (S)-4-((1-(2,5-difluoro-4-(4-(2-fluoropropan-2-yl)-5-hydroxypyridin-2-yl)phenyl)ethyl)amino)-2-ethyl-2,3-dihydro-1H-pyrrolo[3,4-c]pyridin-1-one] | 100 to 500 | 100 to 500 | 100 to 500
10 | CCN1Cc2c(ccnc2N[C@@H](C)c2cc(F)c(-c3cc(C(C)(C)F)c(C#N)cn3)cc2F)C1=O [Compound 163, (S)-6-(4-(1-((2-ethyl-1-oxo-2,3-dihydro-1H-pyrrolo[3,4-c]pyridin-4-yl)amino)ethyl)-2,5-difluorophenyl)-4-(2-fluoropropan-2-yl)nicotinonitrile] | < 100 | < 100 | 100 to 500
11 | CCN1Cc2c(ccnc2N[C@@H](C)c2cc(F)c(-c3cc(C(F)(F)F)c(O)cn3)cc2F)C1=O [Compound 164, (S)-4-((1-(2,5-difluoro-4-(5-hydroxy-4-(trifluoromethyl)pyridin-2-yl)phenyl)ethyl)amino)-2-ethyl-2,3-dihydro-1H-pyrrolo[3,4-c]pyridin-1-one] | 100 to 500 | 500 to 1000 | 500 to 1000
12 | CCN1Cc2c(ccnc2N[C@@H](C)c2cc(F)c(-c3cc(C(F)(F)F)c(OC)cn3)cc2F)C1=O [Compound 165, (S)-4-((1-(2,5-difluoro-4-(5-methoxy-4-(trifluoromethyl)pyridin-2-yl)phenyl)ethyl)amino)-2-ethyl-2,3-dihydro-1H-pyrrolo[3,4-c]pyridin-1-one] | < 100 | < 100 | < 100
